Experimental data: ChEMBL document CHEMBL1201862, “PubChem BioAssay data set” (2004)
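How tested: cells in 96-well plates exposed to compound for 48 hours at five concentrations. Here, GI50 denotes the concentration required for 50% inhibition of growth.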 Active and inactive are the calls of the source. Cut-off read from the data, not from the text of the source: active = GI50 up to about 1.1 µM and inactive = higher.

How the values were obtained:
Assay in all cases: DTP human tumour cell line panel, 48 h
SK-MEL-28 = system: SK-MEL-28
SK-MEL-2 = system: SK-MEL-2
SW-620 = system: SW-620
COLO 205 = system: COLO 205
EKVX = system: EKVX
SNB-19 = system: SNB-19
ACHN = system: ACHN
HOP-62 = system: HOP-62
IGROV-1 = system: IGROV-1
SF-295 = system: SF-295
UACC-257 = system: UACC-257
NCI-H226 = system: NCI-H226
A549 = system: A549
SF-268 = system: SF-268
K562 = system: K562
UACC-62 = system: UACC-62
LOX IMVI = system: LOX IMVI

Measured: GI50

N=c1oc2c(O)c(O)ccc2cc1C(N)=O
inactive: SK-MEL-28 85.7 µM | SK-MEL-2 48.2 µM | SW-620 32.1 µM | COLO 205 41.6 µM | EKVX 47.2 µM | SNB-19 > 100 µM | ACHN > 100 µM | HOP-62 > 100 µM | IGROV-1 > 100 µM | SF-295 33.6 µM | UACC-257 32.1 µM | NCI-H226 > 100 µM | A549 > 100 µM | SF-268 96.4 µM | K562 17.7 µM | UACC-62 35.1 µM

Nc1ccc(C2=Nc3ccccc3SC(c3ccccc3O)C2)cc1 (centres undefined)
inactive: SK-MEL-28 65.8 µM | SK-MEL-2 > 100 µM | SW-620 33.7 µM | COLO 205 45.1 µM | EKVX 99.8 µM | SNB-19 43.1 µM | ACHN 42.2 µM | HOP-62 64 µM | IGROV-1 46.6 µM | LOX IMVI 30.7 µM | SF-295 38 µM | UACC-257 51.9 µM | NCI-H226 33.3 µM | A549 51.2 µM | SF-268 33.7 µM | K562 15.3 µM | UACC-62 38.8 µM

Nc1ncnc2c1ncn2C1OC(CSC(F)F)C(O)C1O (centres undefined)
inactive: SK-MEL-28 > 100 µM | SK-MEL-2 > 100 µM | SW-620 > 100 µM | COLO 205 > 100 µM | EKVX > 100 µM | ACHN > 100 µM | HOP-62 > 100 µM | IGROV-1 > 100 µM | LOX IMVI > 100 µM | SF-295 > 100 µM | UACC-257 > 100 µM | NCI-H226 > 100 µM | A549 > 100 µM | SF-268 > 100 µM | K562 > 100 µM | UACC-62 > 100 µM

CC(=O)Nc1ccc(C(=O)NN2C(=O)C(Cl)C2c2ccc([N+](=O)[O-])cc2)cc1 (centres undefined)
inactive: SK-MEL-28 > 100 µM | SK-MEL-2 > 100 µM | SW-620 > 100 µM | COLO 205 > 100 µM | EKVX > 100 µM | SNB-19 > 100 µM | ACHN > 100 µM | HOP-62 > 100 µM | IGROV-1 > 100 µM | LOX IMVI > 100 µM | SF-295 > 100 µM | UACC-257 > 100 µM | NCI-H226 > 100 µM | A549 > 100 µM | SF-268 > 100 µM | K562 > 100 µM | UACC-62 > 100 µM

Cc1c(C(=O)c2ccccc2C(=O)O)c2ccccc2n1C
inactive: SK-MEL-28 > 100 µM | SK-MEL-2 > 100 µM | SW-620 > 100 µM | EKVX > 100 µM | ACHN > 100 µM | HOP-62 > 100 µM | IGROV-1 > 100 µM | SF-295 > 100 µM | UACC-257 > 100 µM | NCI-H226 > 100 µM | A549 > 100 µM | K562 > 100 µM | UACC-62 > 100 µM
